Consider 20 compounds from patent US8415380B2 (Hoffmann-La Roche Inc., priority 2007, dated 2013).

One data set deals with T1, rat mGlu2 receptor (Rattus norvegicus, UniProt P31421).
T1 construct: expressed in transfected cells; membranes prepared
Kind of data set: [3H]-LY354740 binding on mGlu2 transfected CHO cell membranes. The following applies: 10 nM [3H]-LY354740, mGlu2 transfected CHO cell membranes, room temperature, 1 hour. From the text:
[^3H]-LY354740 Binding on mGlu2 Transfected CHO Cell Membranes Transfection and Cell Culture
cDNA encoding the rat mGlu2 receptor protein in pBluescript II was subcloned into the eukaryotic expression vector pcDNA I-amp from Invitrogen Ltd (Paisley, UK). This vector construct (pcD1mGR^2) was co-transfected with a psvNeo plasmid encoding the gene for neomycin resistance, into CHO cells by a modified calcium phosphate method described by Chen & Okayama (1988). The cells were maintained in Dulbecco's Modified Eagle medium with reduced L-glutamine (1 mM final concentration), 36 mg/L L-Proline and 10% dialysed foetal calf serum from Gibco-Invitrogen; the medium was supplemented with 500 microM α-methyl-4-carboxyphenylglycine (MCPG). Selection was made in the presence of G-418 (300 ug/ml final concentration). Clones were identified by reverse transcription of 5 μg total RNA, followed by PCR using mGlu2 receptor specific primers 5′-[…]-3′ and 5′-[…]-3′ in 60 mM Tris HCl (pH 10), 15 mM (NH4)2SO4, 2 mM MgCl2, 25 units/ml Taq Polymerase with 30 cycles annealing at 60° C. for 1 min., extention at 72° C. for 30 s, and 1 min. 95° C. denaturation.
Cells, cultured as above, were harvested and washed three times with cold PBS and frozen at −80° C. The pellet was resuspended in cold 20 mM HEPES-NaOH buffer containing 10 mM EDTA (pH 7.4), and homogenised with a polytron (Kinematica, A G, Littau, Switzerland) for 10 s at 10 000 rpm. After centrifugation for 30 min. at 4° C., the pellet was washed once with cold 20 mM HEPES-NaOH buffer containing 0.1 mM EDTA, (pH 7.4). After a second centrifugation for 30 min. at 4° C. the pellet was resuspended in cold 20 mM HEPES-NaOH buffer containing 0.1 mM EDTA, (pH 7.4). Protein content was measured using the Micro BCA method from Pierce-Perbio (Rockford, Ill., USA) using bovine serum albumin as standard.
After thawing, the membranes were resuspended in cold 50 mM Tris-HCl buffer containing 2 mM MgCl2 (pH 7.4) (binding buffer). The final concentration of the membranes in the assays was 25 μg protein/ml. Inhibition experiments were performed with membranes incubated with 10 nM [^3H]-LY354740 at room temperature, for 1 hour, in presence of various concentrations of the compound to be tested. Following the incubations, membranes were filtered onto Whatmann GF/B glass fiber filters or onto GF/B Unifilter plates and washed 5 times with cold binding buffer. Non specific binding was measured in the presence of 10 μM (2S,2′R,3′R)-2-(2′3′-Dicarboxycyclopropyl)glycine (DCG IV from Tocris, Ellisville, Mo. USA). After transfer of the filters into plastic vials containing 10 ml of Ultima-gold scintillation fluid from Perkin-Elmer (Boston, Mass., USA), the radioactivity was measured by liquid scintillation in a Tri-Carb 2500 TR counter (Packard, Zurich, Switzerland). For 96-Unifilter plates the radioactivity was measured after addition of Microscint 40 scintillation fluid (Perkin Elmer, Boston Mass.) using a TopCount NXT (Packard)
The inhibition curves were fitted with a four parameter logistic equation giving IC50 values, and Hill coefficients.

T1 sequence (P31421 19-872): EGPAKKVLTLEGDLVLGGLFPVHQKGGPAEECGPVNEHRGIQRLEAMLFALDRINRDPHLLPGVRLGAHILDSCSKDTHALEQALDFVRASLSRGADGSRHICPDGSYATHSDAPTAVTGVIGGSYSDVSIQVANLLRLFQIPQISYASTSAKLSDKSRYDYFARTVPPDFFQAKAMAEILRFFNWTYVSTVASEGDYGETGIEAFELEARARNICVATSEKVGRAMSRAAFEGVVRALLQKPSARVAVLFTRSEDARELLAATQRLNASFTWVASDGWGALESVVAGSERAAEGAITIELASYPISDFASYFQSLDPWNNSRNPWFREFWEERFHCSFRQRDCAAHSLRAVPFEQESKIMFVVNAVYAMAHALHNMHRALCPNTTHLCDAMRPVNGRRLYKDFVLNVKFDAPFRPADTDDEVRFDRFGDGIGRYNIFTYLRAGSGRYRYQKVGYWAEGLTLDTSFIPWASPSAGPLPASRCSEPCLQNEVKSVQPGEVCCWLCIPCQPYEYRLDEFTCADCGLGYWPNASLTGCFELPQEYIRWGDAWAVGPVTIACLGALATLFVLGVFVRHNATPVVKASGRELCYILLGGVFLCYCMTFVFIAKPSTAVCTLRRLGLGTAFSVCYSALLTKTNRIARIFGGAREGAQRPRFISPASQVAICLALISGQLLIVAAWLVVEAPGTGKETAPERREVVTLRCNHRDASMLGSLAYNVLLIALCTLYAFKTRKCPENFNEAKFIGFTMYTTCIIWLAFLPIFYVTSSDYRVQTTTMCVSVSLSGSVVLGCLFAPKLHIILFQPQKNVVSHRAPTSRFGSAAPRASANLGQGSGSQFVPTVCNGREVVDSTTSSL

The Ki is the dissociation constant of the complex between target and ligand, obtained from inhibition or displacement. Broadly, the melting point is the temperature, or range, at which the solid turns liquid. `Nc1ccc(-c2cn(-c3nc(-c4ccc(C(F)(F)F)nc4)cc(C(F)(F)F)n3)cn2)cn1` [Example 13, 5-{1-[4-Trifluoromethyl-6-(6-trifluoromethyl-pyridin-3-yl)-pyrimidin-2-yl]-1H-imidazol-4-yl}-pyridin-2-ylamine] gave a melting point of 259 °C. This compound registered a Ki at rat mGlu2 receptor of 33 nM.

Take `Cc1cc(-c2ccc(C(F)(F)F)nc2)cc(-c2cccc(-c3ccc(N)nc3)c2)n1` [Example 33, 5-[3-(6′-Methyl-6-trifluoromethyl-[3,4′]bipyridinyl-2′-yl)-phenyl]-pyridin-2-ylamine]: the melting point lay within 124 to 125 °C. The compound also gave a Ki on rat mGlu2 receptor of 42 nM. In the same order, the values of `Nc1ccc(-c2cc(-c3nc(-c4ccc(C(F)(F)F)nc4)cc(C(F)(F)F)n3)ccn2)cn1` [Example 8, 4-[4-Trifluoromethyl-6-(6-trifluoromethyl-pyridin-3-yl)-pyrimidin-2-yl]-[2,3′]bipyridinyl-6′-ylamine] are 261.5 °C and 15.6 nM. The matching figures for `Nc1ccc(-c2cccc(-c3nc(-c4ccc(C(F)(F)F)nc4)cc(C(F)(F)F)n3)c2)cn1` [Example 12, 5-{3-[4-Trifluoromethyl-6-(6-trifluoromethyl-pyridin-3-yl)-pyrimidin-2-yl]-phenyl}-pyridin-2-ylamine]: 244 °C and 3.3 nM. `Cc1cc(-c2ccc(C(F)(F)F)cn2)nc(-c2cccc(-c3cccc(S(=O)(=O)NC(C)(C)C)c3)n2)n1` [Example 25]: affinity on rat mGlu2 receptor was put at a Ki of 105 nM.

In the case of `Nc1ccc(-c2cccc(-c3nc(-c4ccc(Cl)s4)cc(C(F)(F)F)n3)c2)cn1` [Example 5, 5-{3-[4-(5-Chloro-thiophen-2-yl)-6-trifluoromethyl-pyrimidin-2-yl]-phenyl}-pyridin-2-ylamine], the melting point came to 99 °C. The compound also had an inhibition constant (Ki) on rat mGlu2 receptor of 139 nM. In the same order, the values of `Cc1cc(-c2ccc(C(F)(F)F)nc2)cc(-c2cccc(-c3cccc(S(=O)(=O)NC(C)(C)C)c3)n2)n1` [Example 29, N-tert-Butyl-3-(6′-methyl-6″-trifluoromethyl-[2,2′;4′,3″]terpyridin-6-yl)-benzenesulfonamide] are 187 to 188 °C and 26 nM. Compound `NS(=O)(=O)c1cccc(-c2cccc(-c3nc(-c4ccc(C(F)(F)F)nc4)cc(C(F)(F)F)n3)c2)c1` [Example 2, 3′-[4-Trifluoromethyl-6-(6-trifluoromethyl-pyridin-3-yl)-pyrimidin-2-yl]-biphenyl-3-sulfonic acid amide] had a melting point of 211 °C. On rat mGlu2 receptor, this compound displayed a Ki of 1.8 nM. The matching figures for `NS(=O)(=O)c1ccc(-c2cc(-c3nc(-c4ccc(C(F)(F)F)nc4)cc(C(F)F)n3)ccn2)s1` [Example 17, 5-{4-[4-Difluoromethyl-6-(6-trifluoromethyl-pyridin-3-yl)-pyrimidin-2-yl]-pyridin-2-yl}-thiophene-2-sulfonic acid amide]: 269.5 °C and 3.5 nM. With `NS(=O)(=O)c1cccc(-c2cn(-c3nc(-c4ccc(C(F)(F)F)nc4)cc(C(F)F)n3)cn2)c1` [Example 19, 3-{1-[4-Difluoromethyl-6-(6-trifluoromethyl-pyridin-3-yl)-pyrimidin-2-yl]-1H-imidazol-4-yl}-benzenesulfonamide], the melting point amounted to 219.5 °C. The compound further displayed a Ki at rat mGlu2 receptor of 15 nM. The matching figures for `Cc1cc(-c2ccc(C(F)(F)F)nc2)nc(-n2cnc(-c3ccc(N)nc3)c2)n1` [Example 20, 5-{1-[4-Methyl-6-(6-trifluoromethyl-pyridin-3-yl)-pyrimidin-2-yl]-1H-imidazol-4-yl}-pyridin-2-ylamine]: 220 °C and 62 nM.

On to `NS(=O)(=O)c1ccc(-c2cccc(-c3nc(-c4ccc(C(F)(F)F)nc4)cc(C(F)(F)F)n3)c2)s1` [Example 3, 5-{3-[4-Trifluoromethyl-6-(6-trifluoromethyl-pyridin-3-yl)-pyrimidin-2-yl]-phenyl}-thiophene-2-sulfonic acid amide], for which the melting point was found to be 250.5 °C. Besides, the affinity on rat mGlu2 receptor corresponds to a Ki of 12 nM. `NS(=O)(=O)c1cccc(-c2cn(-c3nc(-c4ccc(Cl)s4)cc(C(F)(F)F)n3)cn2)c1` [Example 1, 3-{1-[4-(5-Chloro-thiophen-2-yl)-6-trifluoromethyl-pyrimidin-2-yl]-1H-imidazol-4-yl}-benzenesulfonamide] had a melting point of 189 °C. The compound further yielded a Ki at rat mGlu2 receptor of 11.6 nM.

Consider `NS(=O)(=O)c1ccc(-c2cc(-c3nc(-c4ccc(C(F)(F)F)nc4)cc(C(F)(F)F)n3)ccn2)s1` [Example 10, 5-{4-[4-Trifluoromethyl-6-(6-trifluoromethyl-pyridin-3-yl)-pyrimidin-2-yl]-pyridin-2-yl}-thiophene-2-sulfonic acid amide], for which the melting point was 262.5 °C. The compound further yielded a Ki on rat mGlu2 receptor of 6.6 nM. `Cc1cc(-c2ccc(C(F)(F)F)nc2)cc(-c2cccc(-c3cccc(S(N)(=O)=O)c3)c2)n1` [Example 34, 3′-(6′-Methyl-6-trifluoromethyl-[3,4′]bipyridinyl-2′-yl)-biphenyl-3-sulfonic acid amide] registered a melting point of 227 to 232 °C. In turn, `Nc1ncc(-c2cccc(-c3nc(-c4ccc(Cl)s4)cc(C(F)(F)F)n3)c2)cn1` [Example 6, 5-{3-[4-(5-Chloro-thiophen-2-yl)-6-trifluoromethyl-pyrimidin-2-yl]-phenyl}-pyrimidin-2-ylamine] displayed a melting point of 228 °C. For `NS(=O)(=O)c1cccc(-c2cc(-c3nc(-c4ccc(C(F)(F)F)nc4)cc(C(F)(F)F)n3)ccn2)c1` [Example 9, 3-{4-[4-Trifluoromethyl-6-(6-trifluoromethyl-pyridin-3-yl)-pyrimidin-2-yl]-pyridin-2-yl}-benzenesulfonamide], the melting point turned out to be 258 °C. This compound also had a Ki on rat mGlu2 receptor of 5.3 nM. Regarding `Cc1cc(-c2ccc(C(F)(F)F)nc2)nc(-c2cccc(-c3ccc(S(N)(=O)=O)s3)c2)n1` [Example 24, 5-{3-[4-Methyl-6-(6-trifluoromethyl-pyridin-3-yl)-pyrimidin-2-yl]-phenyl}-thiophene-2-sulfonic acid amide], the melting point was 237.5 °C. `Cc1cc(-c2ccc(C(F)(F)F)nc2)cc(-c2cccc(-c3cccc(S(N)(=O)=O)c3)n2)n1` [Example 30, 3-(6′-Methyl-6″-trifluoromethyl-[2,2′;4′,3″]terpyridin-6-yl)-benzenesulfonamide]: the melting point fell in the range of 233 to 234 °C. The same compound came in with a Ki at rat mGlu2 receptor of 2 nM. The matching figures for `NS(=O)(=O)c1cccc(-c2cccc(-c3nc(-c4ccc(Cl)s4)cc(C(F)(F)F)n3)c2)c1` [Example 4, 3′-[4-(5-Chloro-thiophen-2-yl)-6-trifluoromethyl-pyrimidin-2-yl]-biphenyl-3-sulfonic acid amide]: 226.5 °C and 14.3 nM.
